Experimental findings from ChEMBL document CHEMBL4359871, “Novel electrophilic amides amenable by the Ugi reaction perturb thioredoxin system via thioredoxin reductase 1 (TrxR1) inhibition: Identification of DVD-445 as a new lead compound for anticancer therapy” (Eur J Med Chem, 2019) are described below.

Activity calls are given as the source filed them. No cut-off for these calls is given here.

The target in data set [1] is T1, Thioredoxin reductase 1, cytoplasmic (Homo sapiens, UniProt Q16881).
T1 sequence (Q16881 whole entry): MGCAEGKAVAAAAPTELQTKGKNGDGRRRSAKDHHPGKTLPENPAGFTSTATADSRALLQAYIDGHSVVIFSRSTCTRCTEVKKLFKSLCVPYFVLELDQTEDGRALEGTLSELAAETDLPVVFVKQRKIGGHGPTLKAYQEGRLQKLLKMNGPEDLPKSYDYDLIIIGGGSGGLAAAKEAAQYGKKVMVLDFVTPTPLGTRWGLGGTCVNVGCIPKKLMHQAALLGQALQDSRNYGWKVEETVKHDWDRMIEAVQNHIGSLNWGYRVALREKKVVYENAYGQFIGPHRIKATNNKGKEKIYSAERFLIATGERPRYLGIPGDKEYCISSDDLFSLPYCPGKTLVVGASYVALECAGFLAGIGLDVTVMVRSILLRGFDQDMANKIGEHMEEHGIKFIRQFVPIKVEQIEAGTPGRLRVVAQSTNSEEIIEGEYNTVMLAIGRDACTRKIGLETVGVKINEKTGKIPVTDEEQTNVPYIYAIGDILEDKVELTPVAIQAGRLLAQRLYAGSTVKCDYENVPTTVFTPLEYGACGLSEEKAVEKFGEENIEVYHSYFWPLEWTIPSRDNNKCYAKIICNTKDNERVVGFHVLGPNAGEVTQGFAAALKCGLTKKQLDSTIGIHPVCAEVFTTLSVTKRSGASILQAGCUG
In words: Inhibition of TrxR in human SH-SY5Y cells using DTNB as substrate preincubated for 15 mins followed by substrate addition and measured for 20 mins by Ellman's method. In kind it is cell-based. Background: Ellman's reagent forms a yellow product with free thiols.

Data set [2] deals with T2, Thioredoxin reductase 1, cytoplasmic (Rattus norvegicus, UniProt O89049).
T2 sequence (O89049 whole entry): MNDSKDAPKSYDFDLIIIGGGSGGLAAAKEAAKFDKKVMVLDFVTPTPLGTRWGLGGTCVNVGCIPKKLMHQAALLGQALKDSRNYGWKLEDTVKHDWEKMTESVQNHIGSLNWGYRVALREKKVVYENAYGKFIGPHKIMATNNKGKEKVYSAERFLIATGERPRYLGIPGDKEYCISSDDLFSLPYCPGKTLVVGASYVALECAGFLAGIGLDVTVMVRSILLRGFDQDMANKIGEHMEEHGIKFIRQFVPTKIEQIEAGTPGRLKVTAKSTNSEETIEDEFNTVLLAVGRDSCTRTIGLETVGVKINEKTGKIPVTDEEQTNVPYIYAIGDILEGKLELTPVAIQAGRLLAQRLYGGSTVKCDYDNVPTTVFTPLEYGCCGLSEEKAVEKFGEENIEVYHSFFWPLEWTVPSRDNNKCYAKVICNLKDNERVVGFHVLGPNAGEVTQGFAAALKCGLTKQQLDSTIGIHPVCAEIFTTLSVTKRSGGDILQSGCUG
In words: Inhibition of rat TrxR1 using DTNB as substrate preincubated for 15 mins followed by substrate addition and measured for 20 mins by Ellman's method.

Data set [3] has as its target T1, Thioredoxin reductase 1, cytoplasmic. Briefly: Inhibition of TrxR1 (unknown origin) using DTNB as substrate preincubated for 30 mins in presence of insulin followed by substrate addition by colorimetry.
Data set [4] concerns the target T3, Thioredoxin reductase 1, cytoplasmic (Rattus norvegicus) (UniProt O89049).
T3 sequence (whole entry): T2 sequence (O89049 whole entry)
In words: […] inhibition of rat TrxR1 using DTNB as substrate preincubated for 15 mins in presence of NADPH followed by substrate addition and measured for 20 mins by Ellman's method.

For data set [5], the system named is SH-SY5Y. Briefly: Cytotoxicity against human SH-SY5Y cells assessed as reduction in cell viability incubated for 72 hrs by MTT assay. The class given is functional, cell-based. A general note: Tetrazolium assays rely on reduction of a dye to a coloured formazan, in cell work by metabolically active cells.
In data set [6] the test system is U-87 MG. In words: Cytotoxicity against human U87 cells assessed as reduction in cell viability incubated for 72 hrs by MTT assay. The class given is functional, cell-based, U-87MG ATCC.
In a further data set the test system is PBMC. Briefly: Cytotoxicity against human PBMC assessed as reduction in cell viability incubated for 72 hrs by MTT assay. The class given is cell-based.
Data set [7] concerns HaCaT. Briefly: Cytotoxicity against human HaCaT assessed as reduction in cell viability incubated for 72 hrs by MTT assay. The class given is cell-based.
Data set [8] deals with SH-SY5Y. Briefly: Induction of ROS generation in human SH-SY5Y cells incubated for 24 hrs by DHE staining based flow cytometry. In kind it is functional, cell-based. In general terms: A flow cytometer gives signals particle by particle.
The subject of data set [9] is U-87 MG. In words: Induction of ROS generation in human U87 cells incubated for 24 hrs by DHE staining based flow cytometry. In kind it is functional, cell-based. The conditions noted are these: U-87MG ATCC.
Data set [10] deals with HaCaT. In words: Induction of ROS generation in human HaCaT cells incubated for 24 hrs by DHE staining based flow cytometry. In kind it is cell-based.
Data set [11] deals with SH-SY5Y. In words: Induction of RNS generation in human SH-SY5Y cells incubated for 24 hrs by DHR staining based flow cytometry. In kind it is functional.
The subject of data set [12] is U-87 MG. In words: Induction of RNS generation in human U87 cells incubated for 24 hrs by DHR staining based flow cytometry. In kind it is functional, cell-based. The conditions noted are these: U-87MG ATCC.
The test system of data set [13] is HaCaT. Briefly: Induction of RNS generation in human HaCaT cells incubated for 24 hrs by DHR staining based flow cytometry. The class given is cell-based.
Data set [14] deals with SH-SY5Y. In words: Induction of apoptosis in human SH-SY5Y cells assessed as viable cells incubated for 48 hrs by annexin V FITC and propidium iodide staining based flow cytometry (reference value: 92.44 %). The class given is functional.
Data set [15] has as its system SH-SY5Y. Briefly: Induction of apoptosis in human SH-SY5Y cells assessed as early apoptotic cells incubated for 48 hrs by annexin V FITC and propidium iodide staining based flow cytometry (reference value: 0.44 %). In kind it is functional.
The subject of data set [16] is SH-SY5Y. In words: Induction of apoptosis in human SH-SY5Y cells assessed as late apoptotic cells incubated for 48 hrs by annexin V FITC and propidium iodide staining based flow cytometry (reference value: 1.37 %). The class given is functional.
Data set [17] concerns SH-SY5Y. Briefly: Induction of apoptosis in human SH-SY5Y cells assessed as necrotic cells incubated for 48 hrs by annexin V FITC and propidium iodide staining based flow cytometry (reference value: 5.75 %). The class given is functional.
Data set [18] is described as follows: Induction of apoptosis in human HaCaT cells assessed as viable cells incubated for 48 hrs by annexin V FITC and propidium iodide staining based flow cytometry (reference value: 95.78 %). In kind it is cell-based. The conditions noted are these: read-out: Activity.
In data set [19] the test system is HaCaT. In words: Induction of apoptosis in human HaCaT cells assessed as early apoptotic cells incubated for 48 hrs by annexin V FITC and propidium iodide staining based flow cytometry (reference value: 0.02 %). In kind it is cell-based.
Data set [20] has as its system HaCaT. In words: Induction of apoptosis in human HaCaT cells assessed as late apoptotic cells incubated for 48 hrs by annexin V FITC and propidium iodide staining based flow cytometry (reference value: 0.46 %). In kind it is cell-based.
In data set [21] the test system is HaCaT. In words: Induction of apoptosis in human HaCaT cells assessed as necrotic cells incubated for 48 hrs by annexin V FITC and propidium iodide staining based flow cytometry (reference value: 2.74 %). In kind it is cell-based.

The term IC50 denotes the concentration that inhibits the measured activity by half. Take `CC(C)(C)NC(=O)C(c1ccc(F)cc1)N(C(=O)/C=C/C(=O)c1ccc(F)cc1)C1CC1` (configuration not stated): the IC50 stood at 17400 nM in [1]; 930 nM in data set [2]; 820 nM in data set [3]; 560 nM in the data set on SH-SY5Y [5]; 800 nM in the data set with U-87 MG [6]; 5600 nM in the data set on PBMC. In addition, in the data set on HaCaT [7], the 50% inhibitory concentration (IC50) was determined as 1060 nM. For the same compound, in data set [4], the inhibition entry is “Active”. Besides, the outcome in the data set with SH-SY5Y [8], with U-87 MG [9], in the data set on SH-SY5Y [11] and with U-87 MG [12] was inactive. Besides, the Activity entry in the data set with HaCaT [10] was “Non-Toxic”; with HaCaT [13], “Non-Toxic”; with SH-SY5Y [14], 86.76%; in the data set on SH-SY5Y [15] it was 0.6%; in the data set with SH-SY5Y [16], 1.54%; with SH-SY5Y [17], 11.11%. For the same compound, the Activity in the data set on HaCaT [19] is 0.07%; in the data set with HaCaT [20] it was 0.77%; in the data set with HaCaT [21], 5.21%. Moreover, the viability at 48 h in [18] amounted to 94%.
